Assay [1] concerns the target Histamine H1 receptor (Homo sapiens, UniProt P35367).
The target of assay [2] is Sodium-dependent serotonin transporter (Homo sapiens, UniProt P31645).
For assay [3], the target named is Glutamate receptor ionotropic, NMDA 1 (Rattus norvegicus, UniProt P35439).
Assay [4] has as its target Gamma-aminobutyric acid receptor subunit alpha-1 (Rattus norvegicus, UniProt P62813). The class given is functional.
Assay [5] concerns the target Kappa-type opioid receptor (Homo sapiens, UniProt P41145).
Assay [6] concerns the target Motilin receptor (Homo sapiens, UniProt O43193).
The target of assay [7] is T1, Alpha-2B adrenergic receptor (Homo sapiens, UniProt P18089).
T1 sequence (P18089 whole entry): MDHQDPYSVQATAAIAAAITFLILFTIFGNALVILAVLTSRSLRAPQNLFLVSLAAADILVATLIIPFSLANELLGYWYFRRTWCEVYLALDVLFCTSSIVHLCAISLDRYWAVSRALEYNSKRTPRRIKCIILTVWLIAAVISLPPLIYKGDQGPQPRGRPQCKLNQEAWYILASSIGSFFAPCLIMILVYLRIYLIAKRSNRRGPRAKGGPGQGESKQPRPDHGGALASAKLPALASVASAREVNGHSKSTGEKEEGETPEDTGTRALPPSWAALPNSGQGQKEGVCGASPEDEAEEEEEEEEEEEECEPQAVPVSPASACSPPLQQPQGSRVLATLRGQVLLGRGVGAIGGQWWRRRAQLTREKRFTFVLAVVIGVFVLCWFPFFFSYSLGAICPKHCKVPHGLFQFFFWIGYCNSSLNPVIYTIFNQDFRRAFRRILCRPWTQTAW

In assay [8] the target is T2, Alpha-1A adrenergic receptor (Homo sapiens, UniProt P35348).
T2 sequence (P35348 whole entry): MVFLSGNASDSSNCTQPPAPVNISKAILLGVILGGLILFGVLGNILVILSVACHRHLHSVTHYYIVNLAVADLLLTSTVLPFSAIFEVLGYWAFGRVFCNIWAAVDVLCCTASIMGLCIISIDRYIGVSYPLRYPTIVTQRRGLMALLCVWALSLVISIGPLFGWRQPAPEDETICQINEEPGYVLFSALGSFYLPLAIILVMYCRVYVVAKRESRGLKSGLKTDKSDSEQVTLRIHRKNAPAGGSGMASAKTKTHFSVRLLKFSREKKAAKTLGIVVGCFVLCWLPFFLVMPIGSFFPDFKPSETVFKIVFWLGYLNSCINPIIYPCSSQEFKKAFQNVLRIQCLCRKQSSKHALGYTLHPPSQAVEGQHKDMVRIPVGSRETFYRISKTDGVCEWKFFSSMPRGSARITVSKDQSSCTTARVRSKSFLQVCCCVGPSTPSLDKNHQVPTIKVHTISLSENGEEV
The class given is functional, cell-based.

The target in assay [9] is T3, 5-hydroxytryptamine receptor 2C (Homo sapiens, UniProt P28335).
T3 sequence (P28335 whole entry): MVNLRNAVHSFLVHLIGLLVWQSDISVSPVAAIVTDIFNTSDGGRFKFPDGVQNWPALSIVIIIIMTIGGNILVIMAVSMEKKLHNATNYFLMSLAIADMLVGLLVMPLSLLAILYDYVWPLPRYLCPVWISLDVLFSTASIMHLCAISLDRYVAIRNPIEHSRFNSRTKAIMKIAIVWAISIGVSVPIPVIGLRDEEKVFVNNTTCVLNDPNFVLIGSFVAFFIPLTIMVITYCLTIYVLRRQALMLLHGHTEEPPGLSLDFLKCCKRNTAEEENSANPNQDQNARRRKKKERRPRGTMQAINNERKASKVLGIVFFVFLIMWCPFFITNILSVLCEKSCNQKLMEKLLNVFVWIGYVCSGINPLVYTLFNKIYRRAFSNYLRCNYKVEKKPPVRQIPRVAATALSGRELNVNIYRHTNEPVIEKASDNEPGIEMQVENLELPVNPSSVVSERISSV

The target in assay [10] is T4, Equilibrative nucleoside transporter 1 (Homo sapiens, UniProt Q99808).
T4 sequence (Q99808 whole entry): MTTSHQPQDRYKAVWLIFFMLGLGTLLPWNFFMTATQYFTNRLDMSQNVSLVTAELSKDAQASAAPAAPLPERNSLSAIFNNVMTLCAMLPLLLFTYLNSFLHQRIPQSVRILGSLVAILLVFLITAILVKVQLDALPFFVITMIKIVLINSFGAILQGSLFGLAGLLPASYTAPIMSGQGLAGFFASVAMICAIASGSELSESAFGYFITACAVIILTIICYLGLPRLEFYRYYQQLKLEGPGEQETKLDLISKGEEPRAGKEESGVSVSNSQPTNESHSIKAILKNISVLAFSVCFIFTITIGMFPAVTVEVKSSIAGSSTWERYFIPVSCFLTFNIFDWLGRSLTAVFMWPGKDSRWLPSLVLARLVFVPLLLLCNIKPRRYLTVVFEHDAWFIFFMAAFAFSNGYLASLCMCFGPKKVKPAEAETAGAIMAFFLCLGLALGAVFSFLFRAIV

The target of assay [11] is Melanocortin receptor 3 (Homo sapiens, UniProt P41968).
The target of assay [12] is cGMP-inhibited 3',5'-cyclic phosphodiesterase 3A (Homo sapiens, UniProt Q14432). The class given is functional.
Also: assay procedure not described here.

Sequence of Gamma-aminobutyric acid receptor subunit alpha-1 (P62813 whole entry): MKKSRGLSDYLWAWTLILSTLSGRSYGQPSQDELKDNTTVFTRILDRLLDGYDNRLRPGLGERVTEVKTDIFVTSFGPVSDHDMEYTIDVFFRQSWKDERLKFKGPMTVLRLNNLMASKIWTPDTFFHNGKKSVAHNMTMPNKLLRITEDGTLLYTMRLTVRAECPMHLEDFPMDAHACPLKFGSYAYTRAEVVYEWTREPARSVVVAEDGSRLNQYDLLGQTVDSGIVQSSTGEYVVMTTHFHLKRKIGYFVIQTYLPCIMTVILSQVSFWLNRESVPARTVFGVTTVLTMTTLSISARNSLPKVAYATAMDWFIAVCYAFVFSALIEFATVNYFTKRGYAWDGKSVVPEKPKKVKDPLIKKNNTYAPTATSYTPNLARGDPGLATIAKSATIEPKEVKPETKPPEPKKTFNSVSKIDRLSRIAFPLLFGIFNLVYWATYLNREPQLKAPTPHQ
Sequence of Sodium-dependent serotonin transporter (P31645 whole entry): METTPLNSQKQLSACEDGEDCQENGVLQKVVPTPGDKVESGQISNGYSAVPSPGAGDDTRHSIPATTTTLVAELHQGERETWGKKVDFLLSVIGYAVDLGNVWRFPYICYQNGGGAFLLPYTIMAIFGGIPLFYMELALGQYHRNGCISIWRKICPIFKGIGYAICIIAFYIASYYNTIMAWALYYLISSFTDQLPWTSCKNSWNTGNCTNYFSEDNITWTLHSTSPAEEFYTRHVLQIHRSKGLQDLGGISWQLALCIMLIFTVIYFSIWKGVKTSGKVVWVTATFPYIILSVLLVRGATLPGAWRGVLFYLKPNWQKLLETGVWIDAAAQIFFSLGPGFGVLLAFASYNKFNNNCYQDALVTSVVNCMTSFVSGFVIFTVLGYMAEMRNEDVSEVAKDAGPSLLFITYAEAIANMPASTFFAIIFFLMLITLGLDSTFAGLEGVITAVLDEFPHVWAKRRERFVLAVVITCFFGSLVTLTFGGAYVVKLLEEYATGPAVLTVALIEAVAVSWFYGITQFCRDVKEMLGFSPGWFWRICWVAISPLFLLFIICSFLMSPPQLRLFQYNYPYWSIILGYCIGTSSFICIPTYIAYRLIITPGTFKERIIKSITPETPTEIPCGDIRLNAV
Sequence of Melanocortin receptor 3 (P41968 whole entry): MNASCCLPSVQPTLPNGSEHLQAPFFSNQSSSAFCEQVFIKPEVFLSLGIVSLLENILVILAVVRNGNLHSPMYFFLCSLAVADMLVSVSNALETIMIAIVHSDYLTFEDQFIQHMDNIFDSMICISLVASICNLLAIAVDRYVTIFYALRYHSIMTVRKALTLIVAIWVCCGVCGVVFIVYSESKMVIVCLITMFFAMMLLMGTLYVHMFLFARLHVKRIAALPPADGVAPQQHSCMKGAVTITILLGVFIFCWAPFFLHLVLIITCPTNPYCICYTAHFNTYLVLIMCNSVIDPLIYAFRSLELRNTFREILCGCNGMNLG
Sequence of Histamine H1 receptor (P35367 whole entry): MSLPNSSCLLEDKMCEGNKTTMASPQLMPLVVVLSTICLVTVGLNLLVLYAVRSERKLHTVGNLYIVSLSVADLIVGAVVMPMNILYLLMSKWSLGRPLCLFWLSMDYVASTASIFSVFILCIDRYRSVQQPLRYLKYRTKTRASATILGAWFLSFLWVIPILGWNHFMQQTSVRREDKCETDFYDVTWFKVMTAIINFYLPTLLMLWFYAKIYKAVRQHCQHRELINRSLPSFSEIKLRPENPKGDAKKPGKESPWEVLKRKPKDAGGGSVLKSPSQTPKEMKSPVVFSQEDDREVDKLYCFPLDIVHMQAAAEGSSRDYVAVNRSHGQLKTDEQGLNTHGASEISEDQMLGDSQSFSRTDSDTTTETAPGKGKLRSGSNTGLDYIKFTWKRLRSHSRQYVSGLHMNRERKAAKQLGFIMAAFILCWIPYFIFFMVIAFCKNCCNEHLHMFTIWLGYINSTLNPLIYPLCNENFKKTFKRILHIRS
Sequence of Kappa-type opioid receptor (P41145 whole entry): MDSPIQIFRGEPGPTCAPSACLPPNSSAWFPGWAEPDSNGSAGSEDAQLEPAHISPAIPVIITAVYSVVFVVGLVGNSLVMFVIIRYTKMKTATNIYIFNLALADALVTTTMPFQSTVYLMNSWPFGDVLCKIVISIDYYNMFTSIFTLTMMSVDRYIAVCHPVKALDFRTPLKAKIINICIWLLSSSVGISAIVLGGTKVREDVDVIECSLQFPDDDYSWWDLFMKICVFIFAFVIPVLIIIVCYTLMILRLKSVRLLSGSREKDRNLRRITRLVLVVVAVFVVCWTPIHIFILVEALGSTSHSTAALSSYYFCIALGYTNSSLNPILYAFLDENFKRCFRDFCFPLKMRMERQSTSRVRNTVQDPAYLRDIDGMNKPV
Sequence of Motilin receptor (O43193 whole entry): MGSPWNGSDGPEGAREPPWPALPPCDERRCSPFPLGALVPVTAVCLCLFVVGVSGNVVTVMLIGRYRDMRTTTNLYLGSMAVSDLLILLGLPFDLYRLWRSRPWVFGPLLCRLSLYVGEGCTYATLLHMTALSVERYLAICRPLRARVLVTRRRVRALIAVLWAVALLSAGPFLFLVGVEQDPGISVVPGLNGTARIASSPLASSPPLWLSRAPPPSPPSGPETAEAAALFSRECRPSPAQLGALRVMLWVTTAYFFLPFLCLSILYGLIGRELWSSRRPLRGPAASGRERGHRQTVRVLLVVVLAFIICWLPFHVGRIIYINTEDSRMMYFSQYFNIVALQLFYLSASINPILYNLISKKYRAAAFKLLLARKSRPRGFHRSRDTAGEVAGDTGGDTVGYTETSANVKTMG
Sequence of cGMP-inhibited 3',5'-cyclic phosphodiesterase 3A (Q14432 whole entry): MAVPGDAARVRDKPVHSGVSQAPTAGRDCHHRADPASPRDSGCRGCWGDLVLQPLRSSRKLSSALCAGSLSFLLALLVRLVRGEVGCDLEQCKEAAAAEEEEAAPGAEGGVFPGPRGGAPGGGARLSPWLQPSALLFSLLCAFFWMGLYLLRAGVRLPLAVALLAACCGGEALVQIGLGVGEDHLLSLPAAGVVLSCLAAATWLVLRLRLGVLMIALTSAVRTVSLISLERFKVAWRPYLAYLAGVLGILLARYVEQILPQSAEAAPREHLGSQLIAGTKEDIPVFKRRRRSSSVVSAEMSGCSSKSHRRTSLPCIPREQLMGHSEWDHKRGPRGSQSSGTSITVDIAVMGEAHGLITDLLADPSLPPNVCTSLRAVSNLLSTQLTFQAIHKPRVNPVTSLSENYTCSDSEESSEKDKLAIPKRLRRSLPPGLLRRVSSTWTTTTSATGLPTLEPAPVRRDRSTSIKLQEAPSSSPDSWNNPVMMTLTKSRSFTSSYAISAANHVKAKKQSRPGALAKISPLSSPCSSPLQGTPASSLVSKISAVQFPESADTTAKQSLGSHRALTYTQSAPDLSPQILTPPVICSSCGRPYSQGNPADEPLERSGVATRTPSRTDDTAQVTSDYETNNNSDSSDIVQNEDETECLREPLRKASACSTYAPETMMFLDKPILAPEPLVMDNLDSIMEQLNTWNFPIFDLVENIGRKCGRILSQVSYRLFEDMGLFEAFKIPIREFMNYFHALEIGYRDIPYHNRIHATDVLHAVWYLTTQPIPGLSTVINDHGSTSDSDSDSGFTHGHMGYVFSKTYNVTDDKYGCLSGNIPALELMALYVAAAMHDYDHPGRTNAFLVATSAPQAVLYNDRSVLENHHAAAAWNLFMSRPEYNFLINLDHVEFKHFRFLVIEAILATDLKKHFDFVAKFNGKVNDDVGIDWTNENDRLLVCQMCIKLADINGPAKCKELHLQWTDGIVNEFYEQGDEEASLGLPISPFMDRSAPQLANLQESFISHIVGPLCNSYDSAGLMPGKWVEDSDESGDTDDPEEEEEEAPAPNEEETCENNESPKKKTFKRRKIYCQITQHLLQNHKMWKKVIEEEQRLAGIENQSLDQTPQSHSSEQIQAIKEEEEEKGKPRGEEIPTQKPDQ

By AC50 is commonly meant the concentration at which the activity in the assay is half-maximal. A high value points to activity only at high concentration. Consider `CC(C)C(=O)c1c(C(C)C)nn2ccccc12` [IBUDILAST], for which the AC50 in assay [1] is greater than 30 µM; in assay [2] it was greater than 30 µM; in assay [3], greater than 30 µM; in [4], 5.7 µM; in assay [5] it was greater than 30 µM; in assay [6] it was greater than 30 µM. Moreover, the half-maximal activity concentration (AC50) in assay [7], in assay [8], in [9], in [10] and in assay [11] was greater than 30 µM each time.
For `CC(Oc1c(Cl)cccc1Cl)C1=NCCN1` (stereo unspecified) [LOFEXIDINE], the AC50 in assay [1] was greater than 30 µM; in [2], 11 µM; in assay [3], greater than 30 µM; in [4], greater than 30 µM; in assay [5], 22 µM; in [6], greater than 30 µM. The AC50 in assay [12] is greater than 30 µM; in [7] it was 0.74 µM; in assay [8], 0.0071 µM; in assay [9], greater than 30 µM; in [10], greater than 30 µM; in assay [11] it was greater than 30 µM.
As for `CC(C)=CCC/C(C)=C/C=C/C(C)=C/C=C/C(C)=C/C=C/C=C(C)/C=C/C=C(C)/C=C/C=C(\C)CCC=C(C)C` [LYCOPENE], the AC50 in assay [1], in [2], in [3], in assay [4], in assay [5] and in [6] was greater than 30 µM in each case. The AC50 in assay [12], in assay [7], in assay [8], in [9], in assay [10] and in assay [11] was greater than 30 µM each time.
On to `O=C(O)C1=C(CSc2nnnn2CS(=O)(=O)O)CS[C@@H]2[C@H](NC(=O)[C@H](O)c3ccccc3)C(=O)N12` [CEFONICID], for which the AC50 is greater than 30 µM in assay [1]; 30 µM in assay [2]; greater than 30 µM in assay [3]; greater than 30 µM in [4]; greater than 30 µM in assay [5]; greater than 30 µM in assay [6]. The AC50 in assay [12], in [7], in assay [8], in assay [9], in assay [10] and in assay [11] was greater than 30 µM in each case.
Regarding `COc1ccc2c3c1O[C@H]1C(=O)CC[C@@]4(O)[C@@H](C2)N(C)CC[C@]314` [OXYCODONE], the AC50 in assay [1], in assay [2], in [3], in [4], in [6] and in assay [12] was greater than 30 µM throughout. Moreover, the AC50 in [7], in assay [8], in assay [9], in [10] and in assay [11] was greater than 30 µM in each case.
`CC(C(=O)O)c1ccc(N2Cc3ccccc3C2=O)cc1` (stereo unspecified) [INDOPROFEN]: the AC50 in [1], in assay [2], in assay [3], in [4], in assay [5] and in assay [6] was greater than 30 µM in each case. Moreover, the AC50 in assay [12], in assay [7], in assay [8], in assay [9], in assay [10] and in assay [11] was greater than 30 µM each time.
Regarding `CN1CCC(=C2c3ccccc3CCc3sccc32)CC1` [PIZOTYLINE], the AC50 in assay [1] is 0.0047 µM; in assay [2], 8.88 µM; in [3], greater than 10 µM; in assay [4] it was greater than 10 µM; in assay [5], 1.57 µM; in assay [6], greater than 10 µM. The AC50 in [12] was greater than 30 µM; in assay [7], 0.51 µM; in assay [8], greater than 30 µM; in assay [9] it was 0.017 µM; in [10] it was greater than 30 µM; in [11] it was greater than 30 µM.
On to `CC(CC(c1ccccc1)c1ccccc1)NC(C)(C)C` (stereo unspecified) [TERODILINE], for which the AC50 was 0.76 µM in [1]; greater than 30 µM in assay [2]; greater than 30 µM in [3]; greater than 30 µM in [4]; 8.4 µM in assay [5]; greater than 30 µM in assay [6]. Further, the AC50 in [12] is greater than 30 µM; in assay [7] it was 16 µM; in assay [8], greater than 30 µM; in assay [9], greater than 30 µM; in [10], greater than 30 µM; in assay [11] it was greater than 30 µM.
With `OC(CNCC(O)C1CCc2cc(F)ccc2O1)C1CCc2cc(F)ccc2O1` (stereo unspecified) [NEBIVOLOL], the AC50 in assay [1] is greater than 30 µM; in [2], 0.75 µM; in assay [3] it was greater than 30 µM; in assay [4] it was greater than 30 µM; in [5] it was 10 µM; in assay [6], 21 µM. Also, the concentration at half-maximal activity (AC50) was greater than 30 µM in assay [12]; 4.5 µM in assay [7]; greater than 30 µM in [8]; 20 µM in assay [9]; greater than 30 µM in assay [10]; 8.7 µM in assay [11].
For `CC[C@@H]1C(=O)OC[C@@H]1Cc1cncn1C` [PILOCARPINE], the AC50 in assay [1] is greater than 10 µM; in assay [2], greater than 30 µM; in [3], greater than 10 µM; in assay [4] it was greater than 10 µM; in assay [5] it was greater than 10 µM; in assay [6], greater than 10 µM. For the same compound, the AC50 in assay [12] is greater than 30 µM; in assay [7], greater than 10 µM; in [8] it was greater than 30 µM; in assay [9], greater than 30 µM; in [10], greater than 30 µM; in assay [11] it was greater than 30 µM.
For the compound `CC(=O)OCC(=O)[C@@]12N=C(C)O[C@@H]1C[C@H]1[C@@H]3CCC4=CC(=O)C=C[C@]4(C)[C@H]3[C@@H](O)C[C@@]12C` [DEFLAZACORT], the AC50 in [1], in assay [2], in assay [3], in [4], in [5] and in [6] was greater than 30 µM throughout. Further, the AC50 in assay [12], in assay [7], in assay [8], in assay [9], in assay [10] and in assay [11] was greater than 30 µM each time.
As to `NCC(=O)CCC(=O)O` [AMINOLEVULINIC ACID], the AC50 in [1], in assay [2], in assay [3], in assay [4], in [5] and in assay [6] was greater than 30 µM each time. In addition, the AC50 in assay [12], in assay [7], in assay [8], in assay [9] and in [11] was greater than 30 µM each time.

The values above are taken from ChEMBL document CHEMBL5291721, “A preclinical secondary pharmacology resource illuminates target-adverse drug reaction associations of marketed drugs” (Nat Commun, 2023).
